# Measurements reported in paper PMC9501058, “Clinical Effectiveness and Pharmacokinetics of Dalbavancin in Treatment-Experienced Patients with Skin, Osteoarticular, or Vascular Infections” (Pharmaceutics, 2022).
# Read-outs that look alike come from different tables or passages of the source.
# Assays:
# [1] = clinical; details: human, in vivo, iv
# [2] = cited from earlier work
# [3] = ref Dunne et al. 16; cited from earlier work
# [4] = 35 healthy subjects, single infusion of 1500 mg; ref Rappo et al. 15; cited from earlier work
# [5] = Adverse events under DBV; type: in vivo, human
# Excerpt: Table 1 Overall patients’ characteristics at the baseline. | column: Overall / n = 76; Intensive PK Study (n = 41) / Group 0 (n = 17)
# [6] = system: plasma proteins (mainly albumin); details: human; cited from earlier work
# [7] = single 1000 mg infusion; ref Nicolau et al. 14; cited from earlier work
# [8] = human, in vivo
smiles,measurement,setting,value
"CN[C@H]1C(=O)N[C@@H]2Cc3ccc(cc3)Oc3cc4cc(c3O[C@@H]3O[C@H](C(=O)O)[C@@H](O)[C@H](O)[C@H]3NC(=O)CCCCCCCCC(C)C)Oc3ccc(cc3Cl)[C@@H](O)[C@@H]3NC(=O)[C@H](NC(=O)[C@@H]4NC(=O)[C@@H](NC2=O)c2cc(cc(O)c2Cl)Oc2cc1ccc2O)c1ccc(O)c(c1)-c1c(O[C@H]2O[C@H](CO)[C@@H](O)[C@H](O)[C@@H]2O)cc(O)cc1[C@@H](C(=O)NCCCN(C)C)NC3=O [DBV, Dalbavancin]",Cmax,"[1]; 1500 mg, Cmax I dose",343 µg/mL
same,Cmax,[1]; Cmax II dose,337 µg/mL
same,Elimination half-life,[2],220 to 240 h
same,Mean bone/plasma AUC,[3],13.1%
same,Penetration into the epithelial-lining fluid,[4],36%
same,AEs: yes,"[5]; number of patients [%], group 0 (n = 17): single 1500 mg dose",1 [6%]
same,AEs: yes,"[5]; number of patients, overall n = 76",1
same,Protein binding (mean percentage in humans),[6],93%
same,Mean penetration into skin blister fluid compared with plasma,[7],59.6%
same,AUC0–3w,[8],"39,985 [37,045–39,985] mg/L·h"
same,Cmax II dose,[8],379.5 [321.3–448.8] mg/L
same,AUC0–1w,[8]; iv,"26,693 [20,842–28,630] mg/L·h"
same,AUC0–2w,[8]; iv,"34,168 [25,336–37,301] mg/L·h"
same,AUC0–3w,[8]; iv,"39,270 [28,876–43,971] mg/L·h"
same,Cmax I dose,[8]; iv,347.0 [292.4–479.2] mg/L
same,Cumul. AUC0–4w,[8]; iv,"41,681 [32,055–48,180] mg/L·h"
